Measurements: PMC13352219, “Analysis of glutamine synthetase target‐site mutations and their role in endowing glufosinate‐ammonium resistance” (Pest Management Science, 2026)
“And” between values parts separate entries of the source, which are not always exact repeats. Identical values can stand only once. “Also recorded” adds a separate entry of the source. Like-named read-outs stand apart in the source and are kept apart here.

Assays:
[1] = system: Amaranthus palmeri cytosolic GS1.1 C159H; test: GS enzyme inhibition assay, GS1.1 C159H; format: biochemical
Protocol: (§1) GS activity was determined spectrophotometrically following the Sigma‐Aldrich enzymatic assay protocol. The reaction couples the ATP‐dependent conversion of L‐glutamate and ammonium to L‐glutamine with pyruvate kinase (PK) and L‐lactate dehydrogenase (LDH), such that oxidation of β‐NADH to β‐NAD^+ can be monitored at 340 nm. Recombinant GS from A. palmeri was expressed in E. coli, purified by affinity chromatography, and quantified by the Bradford method using bovine serum albumin as standard. […] Reaction mixtures were equilibrated to 37°C and initiated by the addition of enzyme, and the decrease in absorbance at 340 nm was recorded for 5–10 min; only the linear portion of the curve was used for activity calculations. […] Activity was calculated using an extinction coefficient for NADH of 6.22 mM^−1 cm^−1 and expressed as units per mg protein, where one unit corresponds to the formation of 1 μmol of L‐glutamine in […] at pH 7.1 and 37 °C. […] Percent inhibition was calculated relative to untreated (positive) and no‐enzyme (negative) controls. […] Resistance factors were calculated by dividing the IC₅₀ of each mutant variant by that of wild‐type GS.

[2] = system: Amaranthus palmeri cytosolic GS1.1 E297A; test: GS enzyme inhibition assay, GS1.1 E297A; format: biochemical
Protocol: as §1

[3] = system: Amaranthus palmeri cytosolic GS1.1 WT; test: GS enzyme inhibition assay, GS1.1 WT; format: biochemical; conditions: for IC50: read-out: Glufosinate‐ammonium IC50
Protocol: GS activity was determined spectrophotometrically following the Sigma‐Aldrich enzymatic assay protocol. The reaction couples the ATP‐dependent conversion of L‐glutamate and ammonium to L‐glutamine with pyruvate kinase (PK) and L‐lactate dehydrogenase (LDH), such that oxidation of β‐NADH to β‐NAD^+ can be monitored at 340 nm. Recombinant GS from A. palmeri was expressed in E. coli, purified by affinity chromatography, and quantified by the Bradford method using bovine serum albumin as standard. Assays were conducted at 37 °C in 3 mL total volume containing 34.1 mM imidazole (pH 7.1), 102 mM sodium L‐glutamate, 8.5 mM ATP, 1.1 mM phosphoenolpyruvate, 60 mM MgCl₂, 18.9 mM KCl, 45 mM NH₄Cl, 0.25 mM β‐NADH, 28 U PK, 40 U LDH, and 0.4–0.8 U recombinant GS. Reaction mixtures were equilibrated to 37°C and initiated by the addition of enzyme, and the decrease in absorbance at 340 nm was recorded for 5–10 min; only the linear portion of the curve was used for activity calculations. For inhibition assays, GFA was added directly to the reaction mixture to final concentrations ranging from 10^−8 M to 10^−2 M, using 2.5‐fold serial dilutions, with a no‐inhibitor control included in each run. Activity was calculated using an extinction coefficient for NADH of 6.22 mM^−1 cm^−1 and expressed as units per mg protein, where one unit corresponds to the formation of 1 μmol of L‐glutamine in […] at pH 7.1 and 37 °C. Background activity was corrected by including blank assays without GS. Percent inhibition was calculated relative to untreated (positive) and no‐enzyme (negative) controls. Assays were conducted in triplicates. IC₅₀ values (concentration of inhibitor reducing GS activity by 50%) were estimated by nonlinear regression (three‐ or four‐parameter log‐logistic models). Resistance factors were calculated by dividing the IC₅₀ of each mutant variant by that of wild‐type GS.

[4] = system: Amaranthus palmeri cytosolic GS1.1 E297S; test: GS enzyme inhibition assay, GS1.1 E297S; format: biochemical; conditions: IC50 variant / IC50 WT
Protocol: as §1

[5] = system: Amaranthus palmeri cytosolic GS1.1 E192K; test: GS enzyme inhibition assay, GS1.1 E192K; format: biochemical
Protocol: as §1

[6] = system: Amaranthus palmeri cytosolic GS1.1 H249R; test: GS enzyme inhibition assay, GS1.1 H249R; format: biochemical
Protocol: as §1

[7] = system: Amaranthus palmeri cytosolic GS1.1 G245S; test: GS enzyme inhibition assay, GS1.1 G245S; format: biochemical
Protocol: as §1

[8] = system: Amaranthus palmeri cytosolic GS1.1 R316E; test: GS enzyme inhibition assay, GS1.1 R316E; format: biochemical
Protocol: as §1

[9] = system: Amaranthus palmeri cytosolic GS1.1 R311L; test: GS enzyme inhibition assay, GS1.1 R311L; format: biochemical
Protocol: as §1

[10] = system: Amaranthus palmeri cytosolic GS1.1 A309L; test: GS enzyme inhibition assay, GS1.1 A309L; format: biochemical
Protocol: as §1

[11] = system: Amaranthus palmeri cytosolic GS1.1 V161S; test: GS enzyme inhibition assay, GS1.1 V161S; format: biochemical
Protocol: as §1

[12] = system: A. palmeri population from Arkansas (CCR); design: method as in ref 16 = [16]; 16 Priess GL , Norsworthy JK , Godara N , Mauromoustakos A , Butts TR , Roberts TL et al ., Confirmation of glufosinate‐resistant palmer amaranth and response to other herbicides . Weed Technol 36 : 3; conditions: CCR population compared with susceptible standards; listed as GFA; cited from earlier work
[13] = system: Amaranthus palmeri cytosolic GS1.1 K177L; test: GS enzyme inhibition assay, GS1.1 K177L; format: biochemical
Protocol: as §1

[14] = system: Amaranthus palmeri cytosolic GS1.1 R38E; test: GS enzyme inhibition assay, GS1.1 R38E; format: biochemical
Protocol: as §1

[15] = system: Amaranthus palmeri cytosolic GS1.1 E192Q; test: GS enzyme inhibition assay, GS1.1 E192Q; format: biochemical
Protocol: as §1

[16] = system: Arabidopsis thaliana plants expressing Arabidopsis GS2.2 G254D; test: Postemergence GFA spray on transgenic Arabidopsis expressing GS2.2 G254D; format: in vivo; conditions: transgenic Arabidopsis expressing Arabidopsis GS2.2 G254D; 100, 500 and 1000 g ha^−1 postemergence; listed as GFA
Excerpt: Mutant GS variants G2.2 G255D from A. palmeri and G254D from Arabidopsis were cloned into the RTP6557 transformation vector, which was subsequently introduced into Agrobacterium tumefaciens strain C58C1pMP90. The construct also carried an acetolactate synthase (ALS) herbicide‐resistance gene as a selectable marker, ensuring that Arabidopsis seedlings tested for resistance to GFA herbicide expressed the transgene.
Arabidopsis plants carrying immature floral buds were transformed by the floral‐dip method, immersing inflorescences for 10 s in the bacterial suspension supplemented with Silwet‐L77 at 0.05% v/v. After dipping, plants were maintained overnight under high humidity and low light, then transferred to long‐day conditions until maturity. Once siliques had yellowed, seeds were harvested into paper bags. T₁ seeds were collected, placed into Falcon tubes, and stored at 4 °C.
After ≥14 d of cold storage, T₁ seeds were sown and stratified as previously described. Transgenic plants were confirmed by PCR detection of the AHAS resistance marker gene. […]
Herbicide treatments were applied at the 10‐leaf stage using a spray chamber calibrated to deliver 375 L ha^−1 of spray solution. […] Herbicide efficacy was visually evaluated 7 d after application.

[17] = system: Amaranthus palmeri cytosolic GS1.1 D56C; test: GS enzyme inhibition assay, GS1.1 D56C; format: biochemical
Protocol: as §1

[18] = system: Amaranthus palmeri cytosolic GS1.1 K165V; test: GS enzyme inhibition assay, GS1.1 K165V; format: biochemical
Protocol: as §1

[19] = read-out: Glufosinate‐ammonium IC50

Compound: CP(=O)(O)CCC(N)C(=O)O (centres unmarked) [Glufosinate‐ammonium]
- Resistance index (RI) ([1]; IC50 variant / IC50 WT): 186.5
- IC50 [1, 19]: 4050 µM
- Resistance index (RI) ([2]; IC50 variant / IC50 WT): 0.3
- IC50 [2, 19]: 6.9 µM
- Glufosinate‐ammonium % Inhibition at saturation 10 000 μM ([3]; 10 000 μM): 100%
- Resistance index (RI) ([3]; IC50 variant / IC50 WT): 1
- IC50 ([3]; Table 2 panel): 22.5 µM
- IC50 ([3]; Table 3 panel): 21.7 µM
- Resistance index (RI) [4]: 0.0
- Glufosinate‐ammonium % Inhibition at saturation 10 000 μM ([5]; 10 000 μM): 1.3%
- IC50 [5, 19]: > 10000 µM
- Glufosinate‐ammonium % Inhibition at saturation 10 000 μM ([6]; 10 000 μM): 29%
- IC50 [6, 19]: > 10000 µM
- Glufosinate‐ammonium % Inhibition at saturation 10 000 μM ([7]; 10 000 μM): 9%
- IC50 [7, 19]: > 10000 µM
- Resistance index (RI) ([8]; IC50 variant / IC50 WT): 9.1
- IC50 [8, 19]: 197 µM
- Glufosinate‐ammonium % Inhibition at saturation 10 000 μM ([9]; 10 000 μM): 14%
- IC50 [9, 19]: > 10000 µM
- Resistance index (RI) ([10]; IC50 variant / IC50 WT): 9.4
- IC50 [10, 19]: 204 µM
- Resistance index (RI) ([11]; IC50 variant / IC50 WT): 1.8
- IC50 [11, 19]: 39 µM
- resistance indices [12]: 5.1 and 5.9
- Resistance index (RI) ([13]; IC50 variant / IC50 WT): 0.1
- IC50 [13, 19]: 1.3 µM
- Resistance index (RI) ([14]; IC50 variant / IC50 WT): 0.2
- IC50 [14, 19]: 4.8 µM
- Glufosinate‐ammonium % Inhibition at saturation 10 000 μM ([15]; 10 000 μM): 0%
- IC50 [15, 19]: > 10000 µM
- tolerance to GFA (visual injury) [16]: failed to confer tolerance; also recorded: sensitive phenotype
- Resistance index (RI) ([17]; IC50 variant / IC50 WT): 0.2
- IC50 [17, 19]: 3.9 µM
- Resistance index (RI) ([18]; IC50 variant / IC50 WT): 1.5
- IC50 [18, 19]: 33 µM
